Reference: patent US20250326755A1, “CYCLIC QUATERNARY AMMONIUM SALT COMPOUND, AND PREPARATION METHOD THEREFOR AND USE THEREOF” (YICHANG HUMANWELL PHARMACEUTICAL CO., LTD., priority 2022, published 2025)
Where two headings read alike, the source gives them in different places.

Columns and labels:
[1] = test system: sciatic nerve of the rat; assay type: in vivo, SD rats
Method: The experimental methods described in the following test examples were standard procedures unless otherwise specified. All experimental animals used in the following test examples were SD rats purchased from Hunan Slac Jingda Experimental Animal Co., Ltd. Other test materials, unless stated otherwise, were purchased from conventional biochemical reagent suppliers.
The compounds listed in Table 1 and levobupivacaine hydrochloride (positive control) were administered to three groups of rats fully acclimated to the experimental environment, with one rat per group.
Solution Preparation: 2 mg/ml Levobupivacaine Hydrochloride Injection: 2.670 ml of 7.5 mg/ml levobupivacaine hydrochloride injection (Batch No. 92S0702) was pipetted into a 10 ml volumetric flask. 0.9% NaCl solution was added until the meniscus was level with the calibration line, and the solution was inverted and mixed thoroughly, to prepare 2 mg/ml levobupivacaine hydrochloride injection. 2 mg/ml Example Compound Solution: 6.6 mg of the example compound was accurately weighed and dissolved in 3.3 ml of 0.9% NaCl solution to prepare a 2 mg/ml example compound solution.
Both the positive control and the example compound were administered to each rat at 2 mg/ml, with an administration volume of 5 ml/kg, in a single injection near the sciatic nerve of the rat. After the administration, the rat was placed on a preheated hot plate (50±0.1° C.) of an intelligent hot plate instrument. […] The maximum thermal latency was controlled at 60 s. […] Any urine or feces on the hot plate was promptly cleaned and dried before subsequent tests.
Thermal latency results were expressed as the maximum proportional effect (MPE), calculated using the following formula.
Wherein: B represented the basal thermal latency of the rats; P was the maximum thermal latency C was the observed thermal latency at the detection time point.
Measurements were considered invalid if the MPE was less than 50% of the maximum proportional effect. If two consecutive measurements yielded an MPE of less than […], the experiment was terminated.

[2] = test system: rat subcutaneous infiltration model; test: Local anesthetic effect by subcutaneous infiltration, Von Frey needle stimulation of back skin; assay type: in vivo, SD rats; details: 1 mg/ml, 0.5 mL subcutaneous injection on the back, 10 rats
Method: After shaving and disinfecting the backs of SD rats (half male and half female) weighing 190-210 grams, a circle with a diameter of approximately 1.5 cm was drawn on one side of the exposed skin. 0.5 mL of a solution containing the drug was subcutaneously injected into the skin in the center. The solution, using physiological saline as the solvent, contained either 2 mg/ml bupivacaine hydrochloride or 1 mg/ml concentration of the compounds listed in Table 2 of the present application. Each group consisted of 10 rats. A Von Frey fiber with a 100-gram force was attached to a needle for local skin stimulation. One minute after drug administration, the rat's response to the stimulus was measured. Testing was conducted at 6 different points within the marked area of drug administration. Skin contraction, avoidance, and other behaviors following stimulation were observed and recorded. Three points in the center and three points around the circle were stimulated, and the number of skin contraction and avoidance behaviors was recorded as N6. […] Each compound was tested on 10 rats.

[3] = 2 mg/ml, 5 ml/kg, single injection near the sciatic nerve of the rat, hot plate 50±0.1° C.

SMILES | the rat died, time after administration ([1]; 2 mg/ml, 5 ml/kg, single injection near the sciatic nerve) | Duration/h ([1]; rat, in vivo) | Onset Time/min ([1]; rat, in vivo) | Duration/h [2] [h] | Onset Time/min [2] [min] | Duration/h [1, 3] [h] | Onset Time/min [1, 3]
CCCC[N+]1(CCOCCOc2ccccc2)CCCC[C@H]1C(=O)Nc1c(C)cccc1C (stereo partly drawn) [Comparative Example 1, (2S)-1-Butyl-2-((2,6-dimethylphenyl)carbamoyl)-1-(2-(2-phenoxyethoxy)ethyl)piperidine bromide, reference compound] | 1 (the rat died 4 h | 1 (the rat died 4 h | 2 min |  |  |  | 
CCCC[N+]1(CCCCNc2ccccc2)CCCC[C@H]1C(=O)Nc1c(C)cccc1C (stereo partly drawn) [Compound of Example 1, (2S)-1-Butyl-2-((2,6-dimethylphenyl)carbamoyl)-1-(4-(phenylamino)butyl)piperidine bromide] |  | 24 to 48 h | 1 min | 48 to 72 | 1 |  | 
CCCC[N+]1(CCCCNc2ccc(C)cc2)CCCC[C@H]1C(=O)Nc1c(C)cccc1C (stereo partly drawn) [Compound of Example 2, (2S)-1-Butyl-2-((2,6-dimethylphenyl)carbamoyl)-1-(4-(p-toluidino)butyl)piperidine bromide] |  |  |  | 72 to 96 | 1 | 48 to 72 | 1 min
CCCC[N+]1(CCCCOc2ccccc2)CCCC[C@H]1C(=O)Nc1c(C)cccc1C (stereo partly drawn) [Compound of Example 4, (2S)-1-Butyl-2-((2,6-dimethylphenyl)carbamoyl)-1-(4-(phenoxy)butyl)piperidine bromide] |  | 48 to 72 h | 1 min | 72 to 96 | 1 |  | 
CCCC[N+]1(CCCCOc2cc(F)ccc2N)CCCC[C@H]1C(=O)Nc1c(C)cccc1C (stereo partly drawn) [Compound of Example 6, (2S)-1-(4-(2-amino-5-fluorophenoxy)butyl)-1-butyl-2-((2,6-dimethylphenyl)carbamoyl) piperidine bromide] |  |  |  | 48 to 72 | 1 | 24 to 48 | 1 min
CCCC[N+]1(CCCCCNc2ccccc2)CCCC[C@H]1C(=O)Nc1c(C)cccc1C (stereo partly drawn) [Compound of Example 7, (2S)-1-Butyl-2-((2,6-dimethylphenyl)carbamoyl)-1-(5-(phenylamino)pentyl)piperidine bromide] |  | 24 to 48 h | 2 min | 48 to 72 | 2 |  | 
CCCC[N+]1(CCCCCN(C)c2ccccc2)CCCC[C@H]1C(=O)Nc1c(C)cccc1C (stereo partly drawn) [Compound of Example 8, (2S)-1-Butyl-2-((2,6-dimethylphenyl)carbamoyl)-1-(5-(methyl(phenyl)amino)pentyl)piperidine bromide] |  |  |  | 48 to 72 | 1 | 24 to 48 | 1 min
CCCC[N+]1(CCCCCNc2ccc(C)cc2)CCCC[C@H]1C(=O)Nc1c(C)cccc1C (stereo partly drawn) [Compound of Example 9, (2S)-1-Butyl-2-((2,6-dimethylphenyl)carbamoyl)-1-(5-(p-toluylamino)pentyl)piperidine bromide] |  |  |  | 48 to 72 | 1 | 24 to 48 | 1 min
CCCC[N+]1(CCCCCNc2ccc(F)cc2)CCCC[C@H]1C(=O)Nc1c(C)cccc1C (stereo partly drawn) [Compound of Example 10, (2S)-1-Butyl-2-((2,6-dimethylphenyl)carbamoyl)-1-(5-(p-fluorophenylamino)pentyl)piperidine bromide] |  |  |  | 48 to 72 | 2 |  | 2 min
CCCC[N+]1(CCCCCN2CCn3ccnc3C2)CCCC[C@H]1C(=O)Nc1c(C)cccc1C (stereo partly drawn) [Compound of Example 11, (2S)-1-Butyl-1-(5-(5,6-dihydroimidazo[1,2-a]pyrazin-7(8H)-yl)pentyl)-2-((2,6-dimethylphenyl)carbamoyl)piperidine bromide] |  |  |  | 48 to 72 | 1 | 24 to 48 | 1 min
CCCC[N+]1(CCCCCN2CCn3cccc3C2C)CCCC[C@H]1C(=O)Nc1c(C)cccc1C (stereo partly drawn) [Compound of Example 12, (2S)-1-Butyl-2-((2,6-dimethylphenyl)carbamoyl)-1-(5(1-methyl-3,4-dihydropyrrolo[1,2-a]pyrazin-2(1H)-yl)pentyl)piperidine bromide] |  |  |  | 48 to 72 | 1 | 24 to 48 | 1 min
CCCC[N+]1(CCCCNc2c(C)cc(C)cc2C)CCCC[C@H]1C(=O)Nc1c(C)cccc1C (stereo partly drawn) [Compound of Example 19, (2S)-1-Butyl-2-((2,6-dimethylphenyl)carbamoyl)-1-(4-(symmetricaltrimethylamino)butyl)piperidine bromide] |  |  |  |  |  | 2 to 18 | 2 min
CCCC[N+]1(CCCCNc2ccc(Cl)cc2)CCCC[C@H]1C(=O)Nc1c(C)cccc1C (stereo partly drawn) [Compound of Example 20, (2S)-1-Butyl-1-(4-((4-chlorophenyl)amino)butyl)-2-((2,6-dimethylphenyl)carbamoyl)piperidine bromide] |  | 24 to 48 h | 1 min |  |  |  | 
CCCC[N+]1(CCCCNc2ccc(F)c(F)c2)CCCC[C@H]1C(=O)Nc1c(C)cccc1C.[Br-] (stereo partly drawn) [Compound of Example 21, (2S)-1-Butyl-1-(4-((3,4-difluorophenyl)amino)butyl)-2-((2,6-dimethylphenyl)carbamoyl) piperidine bromide] |  |  |  |  |  | 19 to 24 | 1 min
CCCC[N+]1(CCCCOc2cc(C)ccc2C(C)C)CCCC[C@H]1C(=O)Nc1c(C)cccc1C (stereo partly drawn) [Compound of Example 23, (2S)-1-Butyl-2-((2,6-dimethylphenyl)carbamoyl)-1-(4-(2-isopropyl-5-methylphenoxy)butyl) piperidine bromide] |  |  |  |  |  | 48 to 72 | 1 min
CCCC[N+]1(CCCCOc2cccc(C)c2)CCCC[C@@H]1C(=O)Nc1c(C)cccc1C.[Cl-] (stereo partly drawn) [Compound of Example 29, (2R)-1-Butyl-2-((2,6-dimethylphenyl)carbamoyl)-1-(4-(m-tolyloxy)butyl)piperidine chloride] |  |  |  |  |  | 24 to 30 | 1 min
CCCC[N+]1(CCCOc2ccccc2)CCCC[C@H]1C(=O)Nc1c(C)cccc1C (stereo partly drawn) [Compound of Example 34, (2S)-1-Butyl-2-((2,6-dimethylphenyl)carbamoyl)-1-(3-phenoxypropyl)piperidine bromide] |  | 0 h | No effect observed |  |  |  | 
CCCC[N+]1(CCCOc2cccc(C)c2)CCCC[C@H]1C(=O)Nc1c(C)cccc1C (stereo partly drawn) [Compound of Example 35, (2S)-1-Butyl-2-((2,6-dimethylphenyl)carbamoyl)-1-(3-(m-tolyloxy)propyl)piperidine bromide] |  |  |  |  |  | 0 | No effect observed
Cc1cccc(C)c1NC(=O)[C@@H]1CCCC[N+]1(CCCCOc1ccccc1)CC(C)C (stereo partly drawn) [Compound of Example 37, (2S)-1-(Isobutylmethyl)-2-((2,6-dimethylphenyl)carbamoyl)-1-(4-phenoxybutyl)piperidine bromide] |  | 2 to 18 h | 2 min |  |  |  | 
CCCC[N+]1(CCCCOc2cccc(C)c2)CCCC[C@H]1C(=O)Nc1ccccc1C (stereo partly drawn) [Compound of Example 41, (2S)-1-Butyl-2-(o-tolylcarbamoyl)-1-(4-(m-tolyloxy)butyl)piperidinebromide] |  | 2 to 24 h | 2 min |  |  |  | 
CCCC[N+]1(CCCCOc2cccc(C)c2)CCCC[C@H]1C(=O)Nc1c(CC)cccc1CC (stereo partly drawn) [Compound of Example 42, (2S)-1-Butyl-2-((2,6-diethylphenyl)carbamoyl)-1-(4-(m-tolyloxy)butyl)piperidine bromide] |  | 2 to 24 h | 2 min |  |  |  | 
CCCC[N+]1(CCCCOc2ccc3cc(C(C)=O)ccc3c2)CCCC[C@H]1C(=O)Nc1c(C)cccc1C (stereo partly drawn) [Compound of Example 43, (2S)-1-(4-((6-acetylnaphth-2-yl)oxy)butyl)-1-butyl-2-((2,6-dimethylphenyl)carbamoyl) piperidine bromide] |  |  |  |  |  | 48 to 72 | 1 min
